Measurements as given in patent US20200131142A1, “FARNESOID X RECEPTOR AGONISTS AND USES THEREOF” (Metacrine, Inc., priority 2017, published 2020).

Target: T1, hFXR (Homo sapiens, UniProt Q96RI1)
T1 construct: expressed in transfected cells; host or cells: CV-1 cells
T1 sequence (Q96RI1 1-486): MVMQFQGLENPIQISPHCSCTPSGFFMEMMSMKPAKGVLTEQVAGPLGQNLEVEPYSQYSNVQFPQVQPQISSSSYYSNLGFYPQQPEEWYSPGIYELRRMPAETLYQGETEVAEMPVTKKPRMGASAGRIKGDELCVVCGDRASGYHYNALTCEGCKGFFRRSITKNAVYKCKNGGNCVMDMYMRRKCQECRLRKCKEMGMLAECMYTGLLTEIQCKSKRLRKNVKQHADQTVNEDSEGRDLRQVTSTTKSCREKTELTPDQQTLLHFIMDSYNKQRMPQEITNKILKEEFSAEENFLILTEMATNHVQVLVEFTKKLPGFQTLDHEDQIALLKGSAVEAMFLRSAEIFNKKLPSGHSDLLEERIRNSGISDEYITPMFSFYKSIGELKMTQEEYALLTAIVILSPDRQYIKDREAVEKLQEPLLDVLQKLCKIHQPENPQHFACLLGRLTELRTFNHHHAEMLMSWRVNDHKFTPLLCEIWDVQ
T1 sequence (P19793 1-462 partner): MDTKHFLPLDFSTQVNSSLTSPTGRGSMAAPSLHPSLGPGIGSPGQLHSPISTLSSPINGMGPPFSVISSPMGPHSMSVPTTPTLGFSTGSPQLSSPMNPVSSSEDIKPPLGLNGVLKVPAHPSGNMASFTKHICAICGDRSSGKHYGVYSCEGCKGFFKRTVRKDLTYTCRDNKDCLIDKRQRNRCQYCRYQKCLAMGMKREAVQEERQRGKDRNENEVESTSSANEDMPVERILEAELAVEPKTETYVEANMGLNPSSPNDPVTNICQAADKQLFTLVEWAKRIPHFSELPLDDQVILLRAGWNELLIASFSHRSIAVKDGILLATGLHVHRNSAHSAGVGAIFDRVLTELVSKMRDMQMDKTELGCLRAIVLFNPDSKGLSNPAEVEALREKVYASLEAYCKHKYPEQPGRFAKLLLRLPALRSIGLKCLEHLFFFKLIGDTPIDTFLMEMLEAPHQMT
Assay: In Vitro FXR Assay (TK): hFXR/hRXR TK-ECRE-luc reporter in transfected CV-1 cells
Type: cell-based
Conditions: 18 hrs incubation, luminescence, compounds with maximum efficacy <25% of the Fexarmine control classified as '+'
Description: Example B-1: In Vitro FXR Assay (TK)
CV-1 cells were seeded at a density of 2,000,000 cells in a T175 flask with DMEM+10% charcoal double-stripped FBS and incubated at 37° C. in 5% CO2 for 18 h (O/N).
After 18 h of incubation, the medium in the T175 flask was changed with fresh DMEM+10% charcoal super-stripped serum. In a polypropylene tube, 2500 μL OptiMEM (Life Technologies, Cat #31985-062) was combined with expression plasmids for hFXR, hRXR, TK-ECRE-luc and pCMX-YFP. The tube was then briefly vortexed and incubated at room temperature for 5 minutes. Transfection reagent (X-tremeGENE HP from Roche, Cat #06 366 236 001) was added to the OptiMEM/plasmid mixture vortexed and incubated at room temperature for 20 minutes. Following incubation, the transfection reagent/DNA mixture complex was added to cells in the T175 flask and the cells were incubated at 37° C. in 5% CO2 for 18 h (O/N).
Compounds were serially diluted in DMSO and added to transfected CV-1 cells. The cells were then incubated for 18 hrs. The next day cells were lysed and examined for luminescence.

Row | EC50 [nM] | Compound
1 | ≤ 250 | COc1ccc([C@H]2CC[C@H](CN(c3cccc(-c4cnc(C5CCC5)s4)c3)C(=O)[C@H]3CC[C@H](O)CC3)CC2)cc1C [Compound 7.08, trans-N-(3-(2-Cyclobutylthiazol-5-yl)phenyl)-4-hydroxy-N-((trans-4-(4-methoxy-3-methylphenyl)cyclohexyl)methyl) cyclohexanecarboxamide]
2 | 250 to 1000 | COc1ccc([C@H]2CC[C@H](CN(c3cccc(-c4cnc(C5CCCCC5)s4)c3)C(=O)[C@H]3CC[C@H](O)CC3)CC2)cc1C [Compound 7.09, trans-N-(3-(2-Cyclohexylthiazol-5-yl)phenyl)-4-hydroxy-N-((trans-4-(4-methoxy-3-methylphenyl)cyclohexyl)methyl) cyclohexanecarboxamide]
3 | ≤ 250 | COc1ccc([C@H]2CC[C@H](CN(c3cccc(-c4cnc(-c5ccccc5)s4)c3)C(=O)[C@H]3CC[C@H](O)CC3)CC2)cc1C [Compound 7.10, trans-4-Hydroxy-N-((trans-4-(4-methoxy-3-methylphenyl)cyclohexyl)methyl)-N-(3-(2-phenylthiazol-5-yl)phenyl)cyclohexanecarboxamide]
4 | ≤ 250 | COc1ccc([C@H]2CC[C@H](CN(c3cccc(-c4cnc(SC)s4)c3)C(=O)[C@H]3CC[C@H](O)CC3)CC2)cc1C [Compound 7.11, trans-4-Hydroxy-N-((trans-4-(4-methoxy-3-methylphenyl)cyclohexyl)methyl)-N-(3-(2-(methylthio)thiazol-5-yl)phenyl)cyclohexanecarboxamide]
5 | 250 to 1000 | COc1ccc([C@H]2CC[C@H](CN(c3cccc(-c4cnc(S(C)(=O)=O)s4)c3)C(=O)[C@H]3CC[C@H](O)CC3)CC2)cc1C [Compound 7.12, trans-4-Hydroxy-N-((trans-4-(4-methoxy-3-methtylphenyl)cyclohexyl)methyl)-N-(3-(2-(methylsulfonyl)thiazol-5-yl)phenyl)cyclohexanecarboxamide]
6 | ≤ 250 | COc1ccc([C@H]2CC[C@H](CN(c3cccc(-c4cnc(N(C)C)s4)c3)C(=O)[C@H]3CC[C@H](O)CC3)CC2)cc1C [Compound 7.13, trans-N-(3-(2-(Dimethylamino)thiazol-5-yl)phenyl)-4-hydroxy-N-((trans-4-(4-methoxy-3-methylphenyl)cyclohexyl)methyl) cyclohexanecarboxamide]
7 | ≤ 250 | COc1ccc([C@H]2CC[C@H](CN(c3cccc(-c4cnc(N5CCCCC5)s4)c3)C(=O)[C@H]3CC[C@H](O)CC3)CC2)cc1C [Compound 7.14, trans-4-Hydroxy-N-((trans-4-(4-methoxy-3-methylphenyl)cyclohexyl)methyl)-N-(3-(2-(piperidin-1-yl)thiazol-5-yl)phenyl)cyclohexanecarboxamide]
8 | ≤ 250 | COc1ccc([C@H]2CC[C@H](CN(c3cccc(-c4cnc(N5CCOCC5)s4)c3)C(=O)[C@H]3CC[C@H](O)CC3)CC2)cc1C [Compound 7.15, trans-4-Hydroxy-N-((trans-4-(4-methoxy-3-methylphenyl)cyclohexyl)methyl)-N-(3-(2-morpholinothiazol-5-yl)phenyl)cyclohexanecarboxamide]
9 | ≤ 250 | CCOc1ncc(-c2cccc(N(C[C@H]3CC[C@H](c4ccc(OC)c(C)c4)CC3)C(=O)[C@H]3CC[C@H](O)CC3)c2)s1 [Compound 7.16, trans-N-(3-(2-Ethoxythiazol-5-yl)phenyl)-4-hydroxy-N-((trans-4-(4-methoxy-3-methylphenyl)cyclohexyl)methyl) cyclohexanecarboxamide]
10 | ≤ 250 | COc1ccc([C@H]2CC[C@H](CN(c3cccc(-c4cnc(OC(C)C)s4)c3)C(=O)[C@H]3CC[C@H](O)CC3)CC2)cc1C [Compound 7.17, trans-4-Hydroxy-N-(3-(2-isopropoxythiazol-5-yl)phenyl)-N-((trans-4-(4-methoxy-3-methylphenyl)cyclohexyl)methyl) cyclohexanecarboxamide]
11 | ≤ 250 | COc1ccc([C@H]2CC[C@H](CN(c3cccc(-c4cnc(OCCO)s4)c3)C(=O)[C@H]3CC[C@H](O)CC3)CC2)cc1C [Compound 7.18, trans-4-Hydroxy-N-(3-(2-(2-hydroxyethoxy)thiazol-5-yl)phenyl)-N-((trans-4-(4-methoxy-3-methylphenyl)cyclohexyl)methyl) cyclohexanecarboxamide]
12 | 250 to 1000 | COc1ccc([C@H]2CC[C@H](CN(c3cccc(-c4cnc(CO)s4)c3)C(=O)[C@H]3CC[C@H](O)CC3)CC2)cc1C [Compound 7.19, trans-4-Hydroxy-N-(3-(2-(hydroxymethyl)thiazol-5-yl)phenyl)-N-((trans-4-(4-methoxy-3-methylphenyl)cyclohexyl)methyl) cyclohexanecarboxamide]
13 | 250 to 1000 | COc1ccc([C@H]2CC[C@H](CN(c3cccc(-c4cnc(CCO)s4)c3)C(=O)[C@H]3CC[C@H](O)CC3)CC2)cc1C [Compound 7.20, trans-4-Hydroxy-N-(3-(2-(2-hydroxyethyl)thiazol-5-yl)phenyl)-N-((trans-4-(4-methoxy-3-methylphenyl)cyclohexyl)methyl) cyclohexanecarboxamide]
14 | ≤ 250 | CC#Cc1ncc(-c2cccc(N(C[C@H]3CC[C@H](c4ccc(OC)c(C)c4)CC3)C(=O)[C@H]3CC[C@H](O)CC3)c2)s1 [Compound 7.21, trans-4-Hydroxy-N-((trans-4-(4-methoxy-3-methylphenyl)cyclohexyl)methyl)-N-(3-(2-(prop-1-yn-1-yl)thiazol-5-yl)phenyl)cyclohexanecarboxamide]
15 | ≤ 250 | COc1ccc([C@H]2CC[C@H](CN(c3cccc(-c4cnc(C(F)F)s4)c3)C(=O)[C@H]3CC[C@H](O)CC3)CC2)cc1C [Compound 7.22, trans-N-(3-(2-(Difluoromethyl)thiazol-5-yl)phenyl)-4-hydroxy-N-((trans-4-(4-methoxy-3-methylphenyl)cyclohexyl)methyl) cyclohexanecarboxamide]
16 | ≤ 250 | COc1ccc([C@H]2CC[C@H](CN(c3cccc(-c4cnc(C(F)(F)F)s4)c3)C(=O)[C@H]3CC[C@H](O)CC3)CC2)cc1C [Compound 7.23, trans-4-Hydroxy-N-((trans-4-(4-methoxy-3-methylphenyl)cyclohexyl)methyl)-N-(3-(2-(trifluoromethyl)thiazol-5-yl)phenyl)cyclohexanecarboxamide]
17 | 250 to 1000 | COc1ccc([C@H]2CC[C@H](CN(c3cccc(-c4cnc(C(C)=O)s4)c3)C(=O)[C@H]3CC[C@H](O)CC3)CC2)cc1C [Compound 7.24, trans-N-(3-(2-Acetylthiazol-5-yl)phenyl)-4-hydroxy-N-((trans-4-(4-methoxy-3-methylphenyl)cyclohexyl)methyl) cyclohexanecarboxamide]
18 | 250 to 1000 | COc1ccc([C@H]2CC[C@H](CN(c3cccc(-c4cnc(C(N)=O)s4)c3)C(=O)[C@H]3CC[C@H](O)CC3)CC2)cc1C [Compound 7.25, 5-(3-(trans-4-Hydroxy-N-((trans-4-(4-methoxy-3-methylphenyl)cyclohexyl)methyl)cyclohexanecarboxamido)phenyl)thiazole-2-carboxamide]
19 | 250 to 1000 | COc1ccc([C@H]2CC[C@H](CN(c3cccc(-c4cnc(C#N)s4)c3)C(=O)[C@H]3CC[C@H](O)CC3)CC2)cc1C [Compound 7.26, trans-N-(3-(2-Cyanothiazol-5-yl)phenyl)-4-hydroxy-N-((trans-4-(4-methoxy-3-methylphenyl)cyclohexyl)methyl) cyclohexanecarboxamide]
20 | 250 to 1000 | COC(=O)c1ncc(-c2cccc(N(C[C@H]3CC[C@H](c4ccc(OC)c(C)c4)CC3)C(=O)[C@H]3CC[C@H](O)CC3)c2)s1 [Compound 7.27, Methyl 5-(3-(trans-4-hydroxy-N-((trans-4-(4-methoxy-3-methylphenyl)cyclohexyl)methyl)cyclohexanecarboxamido)phenyl)thiazole-2-carboxylate]
